Reference: US12459951B2, “Compounds that interact with RAS superfamily proteins for treatment of cancers, inflammatory diseases, rasopathies, and fibrotic disease” (SHY Therapeutics, LLC, priority 2022, dated 2025)

What was measured:
[1] = tested on: GP2d (expressing KRas G12D mutant); assay: Proliferation Assay (Cell Viability Assay); assay type: cell-based; conditions: Homo sapiens, Proliferation assay, read-out: GP2d IC50 (nM) Colorectal
Method in brief: (§1)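 Cells plated at 2000–5000/well overnight, then treated 2–4 days at 37 °C, 5% CO2 with compound at 10 μM single dose or serial dilutions for IC50, in 0.3% DMSO and 10% FBS. Viability read by CellTiter 96 Aqueous One (MTS); % proliferation inhibition calculated from raw data.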

[2] = tested on: MM.1R (expressing wild type KRAS); assay: Proliferation Assay (Cell Viability Assay); assay type: cell-based; conditions: Homo sapiens, read-out: MM.1R IC50 (nM) Multiple Myloma
Method in brief: as §1

[3] = tested on: active/cleaved caspase 9; assay: Cell-based caspase activation assay (western blot); set-up: species or system human
Procedure: (§2) Biological Example 4: Puma Expression and Caspases Activation Assay
(§3) Protocols for Cell-Based Puma Expression and Caspase Activation Assays
(§4) Cell lines: All human tumor-derived cancer cell lines were purchased from American Type Culture Collection. Human tumor-derived cancer cell lines Panc-1 (expressing KRas G12D mutant), MiaPaca-2 (expressing KRas G12C mutant), A549 (expressing KRas G12S mutant), and A375 (expressing wild type KRas) were grown in complete DMEM-High Glucose medium and NCI-H1975 (expressing wild type KRas), MM.1R (expressing wild type KRas) and IM.9 (expressing wild type KRas) were grown in RPMI1640 medium. Human tumor-derived cancer cell line BT-549 (expressing wild type KRas) was grown in RPMI1640 medium with 11.8U insulin. All mediums were supplemented with penicillin (100 U/mL), streptomycin (100 μg/mL), and 10% heat-inactivated FBS at 37° C. in a humidified incubator with 5% CO2.
(§5) Method: Cells were plated at 300,000 to 800,000 cells/well density in a 6-well plate in the presence of 10% FBS. The next day small molecules to be tested were added to the cells in the final concentration of 3 μM in the presence of 0.3% DMSO for 48 hours incubation at 37° C. For IC50 value determination, serial dilutions of compounds were added to cells under the same conditions. Following 48 hours of incubation cells were lysed with lysis buffer containing 1% Triton X-100, EDTA, and Halt™ Protease & Phosphatase Inhibitor Cocktail (Thermo Scientific). Protein concentration was assessed by BCA protein assay (Thermo Scientific). Increase expression of PUMA and active/cleaved forms of caspase 3, caspase 6 and caspase 9 were detected by western blot.
(§6) Western blot protocol: Equal amounts of protein (15-50 μg) were separated by SDS-PAGE and transferred to nitrocellulose membranes (Invitrogen by Thermo Fisher Scientific). The membrane was stained with Ponceau S Stain (Boston BioProducts) to verify uniform protein loading. Membranes were blocked with 10% milk and expression levels of PUMA was assessed by incubating overnight at 4° C. with the antibody PUMA (D30C10) from Cell Signaling Technology (#12450) and active/cleaved forms of caspase 3, caspase 6 and caspase 9 by incubating overnight at 4° C. with the following antibodies: cleaved caspase-3 (Asp175) (5A1E), cleaved caspase-6 (Asp162) and cleaved caspase-9 (Asp330) (D2D4) (all antibodies from Cell Signaling Technology). Then the membranes were incubated with HRP-conjugated secondary antibody (Jackson Immunoresearch, West Grove, PA). Bands were incubated in Amersham ECL Prime Western Blotting Detection Reagent (GE Healthcare) and visualized using the ChemiDoc MP imaging system (Bio-Rad).

[4] = tested on: active/cleaved caspase 6; assay: Cell-based caspase activation assay (western blot); set-up: species or system human
Procedure: as §2, §3, §4, §5, §6

[5] = tested on: active/cleaved caspase 3; assay: Cell-based caspase activation assay (western blot); set-up: species or system human
Procedure: as §2, §3, §4, §5, §6

[6] = tested on: PUMA expression; assay: Cell-based Puma expression assay (western blot); set-up: species or system human
Procedure: as §2, §3, §4, §5, §6

SMILES	IC50 [1] [nM]	IC50 [2] [nM]	Caspase 9 activation ([3]; A549, after 48 hours)	Caspase 9 activation ([3]; BT-549, after 48 hours)	Caspase 9 activation ([3]; MiaPaca2, after 48 hours)	Caspase 6 activation ([4]; A549, after 48 hours)	Caspase 6 activation ([4]; BT-549, after 48 hours)	Caspase 6 activation ([4]; MiaPaca2, after 48 hours)	Caspase 3 activation ([5]; A549, after 48 hours)	Caspase 3 activation ([5]; BT-549, after 48 hours)	Caspase 3 activation ([5]; MiaPaca2, after 48 hours)	Increased PUMA expression ([6]; A549, after 48 hours)	Increased PUMA expression ([6]; BT-549, after 48 hours)	Increased PUMA expression ([6]; MiaPaca2, after 48 hours)
Cc1c(-c2ccn(C(C)C)n2)cn2nc(-c3nccn3C)nc(Nc3ccn(C4CC4)n3)c12 [Compound 84, N-(1-Cyclopropyl-1H-pyrazol-3-yl)-6-(1-isopropyl-1H-pyrazol-3-yl)-5-methyl-2-(1-methyl-1H-imidazol-2-yl)pyrrolo[2,1-f][1,2,4]triazin-4-amine]	1 to 10	< 1												
Cc1c(-c2ccn(C(C)C)n2)cn2nc(-c3nccn3C)nc(Nc3cc4n(n3)CCO4)c12 [Compound 91, N-(6-(1-Isopropyl-1H-pyrazol-3-yl)-5-methyl-2-(1-methyl-1H-imidazol-2-yl)pyrrolo[2,1-f][1,2,4]triazin-4-yl)-2,3-dihydropyrazolo[5,1-b]oxazol-6-amine]			yes	yes	yes	yes	yes	yes	yes	yes	yes	yes	yes	yes
